Patent US20040197416A1, “Nanocapsules containing a steroid for cosmetic compositions” (priority 2001, published 2004)

Columns and labels:
[1] = system: skin; settings: rats; cited from earlier work
[2] = system: human keratinocytes; settings: cited from earlier work
[3] = system: fibroblasts; settings: cited from earlier work
[4] = Solubility of DHEA in various oily solvents (excess DHEA, supernatant analysed by HPLC); assay type: physicochemical; settings: for RT solubility: room temperature (25° C.), after 24 hours; for solubility of DHEA: comparative
Description: The solubility measurement was performed in the following manner. DHEA was dispersed, in excess, in the solvent under consideration, and preheated to 60° C. This temperature was maintained for one hour with stirring using a magnetic bar. The suspension was then cooled to room temperature (RT, 25° C.). After 24 hours, the suspension was centrifuged to remove the undissolved DHEA crystals. The supernatant was taken up and the absence of DHEA crystals was checked by cross-polarized optical microscopy. This supernatant was then analysed by HPLC. It is considered that the amount of DHEA detected corresponds to its maximum solubility in the solvent under consideration.

In the case of C[C@]12CC[C@H](O)CC1=C[C@@H](O)[C@@H]1[C@@H]2CC[C@]2(C)C(=O)CC[C@@H]12 [7α-hydroxy DHEA], the “elastin and collagen content of the skin” value [1] is given as “increases”, the “thickness of the dermis” value [1] is given as “increases” and the “viability of human keratinocytes” value [2] is given as “increase”. For the same compound, the proliferation of fibroblasts [3] was “increase”.
With C[C@]12CC[C@H](O)CC1=CC[C@@H]1[C@@H]2CC[C@]2(C)C(=O)CC[C@@H]12 [DHEA, dehydroepiandrosterone] the RT solubility ([4]; DHEA in Capric/caprylic triglycerides) was 1.77%, the RT solubility ([4]; DHEA in Isopropyl palmitate) was 1.37% and the RT solubility ([4]; DHEA in Isostearyl neopentanoate) was 1.30%. It also gave an RT solubility ([4]; DHEA in Jojoba oil) of 1.10%, an RT solubility ([4]; DHEA in Octyl palmitate) of 1% and an RT solubility ([4]; DHEA in PPG-15 stearyl ether) of 2.68%. The RT solubility ([4]; DHEA in Sesame oil) was 1.40%, the RT solubility ([4]; DHEA in α-Tocopherol) was 1.65% and the “solubility of DHEA” value ([4]; in cetearyl isononanoate) was 0.83%. The “solubility of DHEA” value ([4]; in cyclopentasiloxane) was 0.04%, the “solubility of DHEA” value ([4]; in liquid paraffin) was 0% and the “solubility of DHEA” value ([4]; in polydimethylsiloxane (200-350 cs)) was 0.17%. The “solubility of DHEA” value ([4]; in squalane) was 0.10%.
